The assay addresses T1, human M4 muscarinic acetylcholine receptor (Homo sapiens, UniProt P08173).
T1 construct: expressed in transfected cells; host or cells: CHO-K1
T1 sequence (P08173 1-479): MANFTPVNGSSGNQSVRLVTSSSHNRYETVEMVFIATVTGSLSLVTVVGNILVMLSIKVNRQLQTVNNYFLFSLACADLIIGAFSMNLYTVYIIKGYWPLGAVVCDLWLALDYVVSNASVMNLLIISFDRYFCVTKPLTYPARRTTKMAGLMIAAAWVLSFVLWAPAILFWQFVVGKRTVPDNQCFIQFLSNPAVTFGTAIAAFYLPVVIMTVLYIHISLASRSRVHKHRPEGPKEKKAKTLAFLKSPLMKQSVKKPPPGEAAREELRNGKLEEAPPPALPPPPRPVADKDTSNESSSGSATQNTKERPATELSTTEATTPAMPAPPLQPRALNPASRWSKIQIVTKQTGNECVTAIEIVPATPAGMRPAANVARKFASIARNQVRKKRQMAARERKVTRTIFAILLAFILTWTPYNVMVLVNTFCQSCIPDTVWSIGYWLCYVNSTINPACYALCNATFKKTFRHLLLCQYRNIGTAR
Kind of assay: human FLIPR-based M4 PAM assay (calcium mobilization in CHO-K1 cells with human M4 receptor and Gαqi5). As to conditions: inflection point of dose response curve, acetylcholine at 20% of maximum response, FLIPR Tetra, read-out: M4 PAM IP. Type of assay: cell-based. On the procedure:
(§1) In a typical experiment the M4 muscarinic acetylcholine receptor modulating activity of the compounds of the present invention was determined in accordance with the following experimental method. CHO-K1 cells stably transfected with human M4 receptor and chimeric G-protein Gαqi5 (Coward P, et al., Analytical Biochemistry, 270:242-248 (1999)) are thawed from liquid N2 storage, resuspended in growth medium, plated in black, clear bottom 384 well plates, and incubated 16-20 hours at 37° C., 5% CO2. On the day of assay, growth medium is removed, the cells are washed 2 times with wash buffer, and cells are incubated in dye loading buffer at 37° C., 5% CO2 for ˜1 hour. Following dye loading the cell plates are placed in a FLIPR Tetra instrument and while monitoring dye fluorescence (excitation […]), 10 uL of test substance at increasing concentrations is added, and fluorescence values are recorded for 4 min. Next, 10 uL of acetylcholine is added (final concentration calculated so as to achieve 20% of the maximum acetycholine response), and the fluorescence reading is continued for 3.5 min. In some cases, a third addition of acetylcholine (final concentration calculated to achieve 70% of the maximal acetylcholine response) is performed. The resulting dose response curves are fit to a 4 parameter logistic equation and the final result is determined as the inflection point (IP) of the curve
as §1, with “CHO-K1” for “In a typical experiment the M4 muscarinic acetylcholine receptor modulating activity of the compounds of the present invention was determined in accordance with the following experimental method. CHO-K1”, “Gαqi5” for “Gαqi5 (Coward P, et al., Analytical Biochemistry, 270:242-248 (1999))”, “performed.” for “performed. The resulting dose response curves are fit to a 4 parameter logistic equation and the final result is determined as the inflection point (IP) of the curve”
Background: A change in cytosolic calcium serves as a functional read-out for many receptors and channels.

For 25 compounds, EC50 results are on record in US10933056B2, “3-(1H-pyrazol-4-yl)pyridine allosteric modulators of the M4 muscarinic acetylcholine receptor” (Merck Sharp & Dohme Corp., priority 2015, dated 2021).

As to `Cc1cc(-c2cnn(CC3(C)CCCC3)c2)c(-c2ccc3c(c2)C(=O)N(C)C3)nc1C(N)=O` [Example 113, 3-Methyl-6-(2-methyl-3-oxoisoindolin-5-yl)-5-(1-((1-methylcyclopentyl)methyl)-1H-pyrazol-4-yl)picolinamide], the EC50 came out at 0.069 µM.

Consider `CC1(Cn2cc(-c3ccc(C#N)nc3-c3ccc4c(c3)C(=O)N(C3CC3)C4)cn2)CCCC1` [Example 33, 6-(2-cyclopropyl-3-oxoisoindolin-5-yl)-5-(1-((1-methylcyclopentyl)methyl)-1H-pyrazol-4-yl)picolinonitrile], for which the EC50 stood at 0.007 µM.

Consider `CC1(Cn2cc(-c3cc4c(nc3-c3cnc5c(c3)C(=O)N(CC3CC3)C5)[C@H](F)CC4)cn2)CCCC1` (single isomer, unassigned) [Example 1A], for which the EC50 worked out at 0.067 µM.

`CN1Cc2ccc(-c3nc(C(N)=O)ccc3-c3cnn(CC4CCCC4)c3)cc2C1=O` [Example 17, 5-(1-(cyclopentylmethyl)-1H-pyrazol-4-yl)-6-(2-methyl-3-oxoisoindolin-5-yl)picolinamide]: the EC50 turned out to be 0.278 µM.

Consider `O=C1c2cc(-c3ncccc3-c3cnn(CC4CCCC4)c3)ccc2CN1CC1CC1` [Example 84, 6-(3-(1-(Cyclopentylmethyl)-1H-pyrazol-4-yl)pyridin-2-yl)-2-(cyclopropylmethyl)isoindolin-1-one], for which the EC50 stood at 0.047 µM.

Take `Cc1ccc(-c2cnn(CC3CCCC3)c2F)c(-c2ccc3c(c2)C(=O)N(CC2CC2)C3)n1` [Example 9, 6-(3-(1-(cyclopentylmethyl)-5-fluoro-1H-pyrazol-4-yl)-6-methylpyridin-2-yl)-2-(cyclopropylmethyl)isoindolin-1-one]: the EC50 amounted to 0.012 µM.

Consider `CC1(Cn2cc(-c3cc4c(nc3-c3cnc5c(c3)C(=O)NC5)[C@@H](F)CC4)cn2)CCCC1` [Example 39B, (S)-3-(7-fluoro-3-(1-((1-methylcyclopentyl)methyl)-1H-pyrazol-4-yl)-6,7-dihydro-5H-cyclopenta[b]pyridin-2-yl)-6,7-dihydro-5H-pyrrolo[3,4-b]pyridin-5-one], for which the EC50 was 0.025 µM.

With `CN1C(=O)c2cc(-c3nc(C#N)ccc3-c3cnn(CC4(C)CCCC4)c3)ccc2C1(C)C` [Example 72], the EC50 was determined as 0.041 µM.

`CN1C(=O)c2cc(-c3nc4c(cc3-c3cnn(CC5(C)CCCC5)c3)CCC4)cnc2C1(C)C` [Example 71, 6,7,7-trimethyl-3-(3-(1-((1-methylcyclopentyl)methyl)-1H-pyrazol-4-yl)-6,7-dihydro-5H-cyclopenta[b]pyridin-2-yl)-6,7-dihydro-5H-pyrrolo[3,4-b]pyridin-5-one]: the EC50 is 0.035 µM.

Turning to `CC1(Cn2cc(-c3cc4c(nc3-c3cnc5c(c3)C(=O)N(CCC#N)C5)CCC4)cn2)CCCC1` [Example 69, 3-(3-(3-(1-((1-methylcyclopentyl)methyl)-1H-pyrazol-4-yl)-6,7-dihydro-5H-cyclopenta[b]pyridin-2-yl)-5-oxo-5,7-dihydro-6H-pyrrolo[3,4-b]pyridin-6-yl)propanenitrile], the EC50 was found to be 0.034 µM.

Consider `CNC(=O)c1ccc(-c2cnn(CC3CCCC3)c2)c(-c2ccc3c(c2)C(=O)N(CC2CC2)C3)n1` [Example 12, 5-(1-(cyclopentylmethyl)-1H-pyrazol-4-yl)-6-(2-(cyclopropylmethyl)-3-oxoisoindolin-5-yl)-N-methylpicolinamide], for which the EC50 came out at 0.348 µM.

In the case of `Cc1ccc(-c2cnn(CC3(C)CCCC3)c2)c(-c2ccc3c(c2)C(=O)NC3)n1` [Example 104, 6-(6-methyl-3-(1-((1-methylcyclopentyl)methyl)-1H-pyrazol-4-yl)pyridin-2-yl)isoindolin-1-one], the EC50 amounted to 0.014 µM.

`Cc1ccc(-c2cnn(CC3(C)CCCC3)c2)c(-c2ccc3c(c2)C(=O)N(C)C3)n1` [Example 27, 2-methyl-6-(6-methyl-3-(1-((1-methylcyclopentyl)methyl)-1H-pyrazol-4-yl)pyridin-2-yl)isoindolin-1-one]: the EC50 was 0.011 µM.

`CN1Cc2ccc(-c3nc(C#N)ccc3-c3cnn(CC4(C)CCCC4)c3Cl)cc2C1=O` [Example 79, 5-(5-chloro-1-((1-methylcyclopentyl)methyl)-1H-pyrazol-4-yl)-6-(2-methyl-3-oxoisoindolin-5-yl)picolinonitrile]: the EC50 is 0.108 µM.

As to `CN1Cc2ccc(-c3nc(C#N)ccc3-c3cnn(CC4(C)CCCC4)c3F)cc2C1=O` [Example 43, 5-(5-fluoro-1-((1-methylcyclopentyl)methyl)-1H-pyrazol-4-yl)-6-(2-methyl-3-oxoisoindolin-5-yl)picolinonitrile], the EC50 was determined as 0.02 µM.

Regarding `CN1Cc2ncc(-c3nc(CF)ccc3-c3cnn(CC4(C)CCCC4)c3)cc2C1=O` [Example 58, 3-(6-(fluoromethyl)-3-(1-((1-methylcyclopentyl)methyl)-1H-pyrazol-4-yl)pyridin-2-yl)-6-methyl-6,7-dihydro-5H-pyrrolo[3,4-b]pyridin-5-one], the EC50 was determined as 0.035 µM.

Regarding `CN1Cc2ccc(-c3nc(CF)ccc3-c3cnn(CC4(C)CCCC4)c3)cc2C1=O` [Example 52, 6-(6-(fluoromethyl)-3-(1-((1-methylcyclopentyl)methyl)-1H-pyrazol-4-yl)pyridin-2-yl)-2-methylisoindolin-1-one], the EC50 worked out at 0.04 µM.

Regarding `CC1(Cn2cc(-c3ccc(C#N)nc3-c3cnc4c(c3)C(=O)N(C3CC3)C4)cn2)CCCC1` [Example 105, 6-(6-cyclopropyl-5-oxo-6,7-dihydro-5H-pyrrolo[3,4-b]pyridin-3-yl)-5-(1-((1-methylcyclopentyl)methyl)-1H-pyrazol-4-yl)picolinonitrile], the EC50 came out at 0.036 µM.

Consider `COCCN1Cc2ncc(-c3nc4c(cc3-c3cnn(CC5(C)CCCC5)c3)CCC4)cc2C1=O` [Example 70, 6-(2-methoxyethyl)-3-(3-(1-((1-methylcyclopentyl)methyl)-1H-pyrazol-4-yl)-6,7-dihydro-5H-cyclopenta[b]pyridin-2-yl)-6,7-dihydro-5H-pyrrolo[3,4-b]pyridin-5-one], for which the EC50 is 0.047 µM.

`CN1Cc2ccc(-c3nccc(C#N)c3-c3cnn(CC4(C)CCCC4)c3)cc2C1=O` [Example 31, 2-(2-methyl-3-oxoisoindolin-5-yl)-3-(1-((1-methylcyclopentyl)methyl)-1H-pyrazol-4-yl)isonicotinonitrile]: the EC50 is 0.074 µM.

Consider `CC1(Cn2cc(-c3cc4c(nc3-c3cnc5c(c3)C(=O)N(CCF)C5)CCC4)cn2)CCCC1` [Example 118A, 6-(2-fluoroethyl)-3-(3-(1-((1-methylcyclopentyl)methyl)-1H-pyrazol-4-yl)-6,7-dihydro-5H-cyclopenta[b]pyridin-2-yl)-6,7-dihydro-5H-pyrrolo[3,4-b]pyridin-5-one], for which the EC50 worked out at 0.05 µM.

For the compound `CC1(Cn2ncc(-c3ccc(C#N)nc3-c3ccc4c(c3)C(=O)NC4)c2F)CCCC1` [Example 43A, 5-(5-fluoro-1-((1-methylcyclopentyl)methyl)-1H-pyrazol-4-yl)-6-(3-oxoisoindolin-5-yl)picolinonitrile], the EC50 came out at 0.026 µM.

For the compound `NC(=O)c1ccc(-c2cnn(CC3CCCC3)c2)c(-c2ccc3c(c2)C(=O)N(CC2CC2)C3)n1` [Example 15, 5-(1-(cyclopentylmethyl)-1H-pyrazol-4-yl)-6-(2-(cyclopropylmethyl)-3-oxoisoindolin-5-yl)picolinamide], the EC50 was determined as 0.094 µM.

For the compound `CN1Cc2ccc(-c3nc(F)c(F)cc3-c3cnn(CC4(C)CCCC4)c3)cc2C1=O` [Example 127, 6-(5,6-Difluoro-3-(1-((1-methylcyclopentyl)methyl)-1H-pyrazol-4-yl)pyridin-2-yl)-2-methylisoindolin-1-one], the EC50 was determined as 0.09 µM.

For the compound `Cc1cc(-c2cnn(CC3(C)CCCC3)c2)c(-c2ccc3c(c2)C(=O)N(C)C3)nc1C` [Example 109, 6-(5,6-Dimethyl-3-(1-((1-methylcyclopentyl)methyl)-1H-pyrazol-4-yl)pyridin-2-yl)-2-methylisoindolin-1-one], the EC50 was found to be 0.048 µM.
